# Assays:
# Format in all cases: functional
# [1] = Cytotoxicity against human UACC257 cells assessed as cell growth inhibition at 10 uM after 48 hrs by SRB assay relative to control; conditions: UACC-257, 48 h, read-out: GI
# [2] = Cytotoxicity against human HCT15 cells assessed as cell growth inhibition at 10 uM after 48 hrs by SRB assay relative to control; conditions: HCT-15, 48 h, read-out: GI
# [3] = Cytotoxicity against human RXF393 cells assessed as cell growth inhibition at 10 uM after 48 hrs by SRB assay relative to control; conditions: RXF 393, 48 h, read-out: GI
# [4] = Cytotoxicity against human HOP62 cells assessed as cell growth inhibition at 10 uM after 48 hrs by SRB assay relative to control; conditions: HOP-62, 48 h, read-out: GI
# [5] = system: 786-0; test: Cytotoxicity against human 786-0 cells assessed as cell growth inhibition at 10 uM after 48 hrs by SRB assay relative to control; conditions: 786-0, 48 h, read-out: GI
# [6] = system: NCI-H322M; test: Cytotoxicity against human NCI-H322M cells assessed as cell growth inhibition at 10 uM after 48 hrs by SRB assay relative to control; conditions: read-out: GI
# [7] = system: NCI-H522; test: Cytotoxicity against human NCI-H522 cells assessed as cell growth inhibition at 10 uM after 48 hrs by SRB assay relative to control; conditions: NCI-H522, 48 h, read-out: GI
# [8] = system: KM12; test: Cytotoxicity against human KM12 cells assessed as cell growth inhibition at 10 uM after 48 hrs by SRB assay relative to control; conditions: KM12, 48 h, read-out: GI
# [9] = Cytotoxicity against human HCC2998 cells assessed as cell growth inhibition at 10 uM after 48 hrs by SRB assay relative to control; conditions: HCC 2998, 48 h, read-out: GI
# [10] = Cytotoxicity against human RPMI8226 cells assessed as cell growth inhibition at 10 uM after 48 hrs by SRB assay relative to control; conditions: RPMI-8226, 48 h, read-out: GI
# [11] = Cytotoxicity against human OVCAR8 cells assessed as cell growth inhibition at 10 uM after 48 hrs by SRB assay relative to control; conditions: OVCAR-8, 48 h, read-out: GI
# [12] = system: A498; test: Cytotoxicity against human A498 cells assessed as cell growth inhibition at 10 uM after 48 hrs by SRB assay relative to control; conditions: A498, 48 h, read-out: GI
# [13] = system: SK-MEL-5; test: Cytotoxicity against human SK-MEL-5 cells assessed as cell growth inhibition at 10 uM after 48 hrs by SRB assay relative to control; conditions: SK-MEL-5, 48 h, read-out: GI
# [14] = Cytotoxicity against human SKOV3 cells assessed as cell growth inhibition at 10 uM after 48 hrs by SRB assay relative to control; conditions: SK-OV-3, 48 h, read-out: GI
# [15] = system: SK-MEL-28; test: Cytotoxicity against human SK-MEL-28 cells assessed as cell growth inhibition at 10 uM after 48 hrs by SRB assay relative to control; conditions: SK-MEL-28, 48 h, read-out: GI
# [16] = system: CCRF-CEM; test: Cytotoxicity against human CCRF-CEM cells assessed as cell growth inhibition at 10 uM after 48 hrs by SRB assay relative to control; conditions: read-out: GI
# [17] = Cytotoxicity against human MOLT4 cells assessed as cell growth inhibition at 10 uM after 48 hrs by SRB assay relative to control; conditions: MOLT-4, 48 h, read-out: GI
# [18] = Cytotoxicity against human HL-60(TB) cells assessed as cell growth inhibition at 10 uM after 48 hrs by SRB assay relative to control; conditions: HL-60, 48 h, read-out: GI
# [19] = Cytotoxicity against human OVCAR5 cells assessed as cell growth inhibition at 10 uM after 48 hrs by SRB assay relative to control; conditions: OVCAR-5, 48 h, read-out: GI
# [20] = system: SK-MEL-2; test: Cytotoxicity against human SK-MEL-2 cells assessed as cell growth inhibition at 10 uM after 48 hrs by SRB assay relative to control; conditions: SK-MEL-2, 48 h, read-out: GI
# [21] = Cytotoxicity against human HOP92 cells assessed as cell growth inhibition at 10 uM after 48 hrs by SRB assay relative to control; conditions: HOP-92, 48 h, read-out: GI
# [22] = system: NCI-H23; test: Cytotoxicity against human NCI-H23 cells assessed as cell growth inhibition at 10 uM after 48 hrs by SRB assay relative to control; conditions: NCI-H23, 48 h, read-out: GI
# [23] = Cytotoxicity against human SF268 cells assessed as cell growth inhibition at 10 uM after 48 hrs by SRB assay relative to control; conditions: SF-268, 48 h, read-out: GI
# [24] = system: NCI-H226; test: Cytotoxicity against human NCI-H226 cells assessed as cell growth inhibition at 10 uM after 48 hrs by SRB assay relative to control; conditions: NCI-H226, 48 h, read-out: GI
# [25] = Cytotoxicity against human PC3 cells assessed as cell growth inhibition at 10 uM after 48 hrs by SRB assay relative to control; conditions: PC-3, 48 h, read-out: GI
# [26] = Cytotoxicity against human COLO205 cells assessed as cell growth inhibition at 10 uM after 48 hrs by SRB assay relative to control; conditions: COLO 205, 48 h, read-out: GI
# [27] = Cytotoxicity against human IGROV1 cells assessed as cell growth inhibition at 10 uM after 48 hrs by SRB assay relative to control; conditions: IGROV-1, 48 h, read-out: GI
# [28] = system: Malme-3M; test: Cytotoxicity against human MALME-3M cells assessed as cell growth inhibition at 10 uM after 48 hrs by SRB assay relative to control; conditions: read-out: GI
# [29] = system: A549; test: Cytotoxicity against human A549 cells assessed as cell growth inhibition at 10 uM after 48 hrs by SRB assay relative to control; conditions: A549, 48 h, read-out: GI
# [30] = system: EKVX; test: Cytotoxicity against human EKVX cells assessed as cell growth inhibition at 10 uM after 48 hrs by SRB assay relative to control; conditions: read-out: GI
# [31] = Cytotoxicity against human Hs 578T cells assessed as cell growth inhibition at 10 uM after 48 hrs by SRB assay relative to control; conditions: read-out: GI
# [32] = system: HT-29; test: Cytotoxicity against human HT-29 cells assessed as cell growth inhibition at 10 uM after 48 hrs by SRB assay relative to control; conditions: HT-29, 48 h, read-out: GI
# [33] = system: MCF7; test: Cytotoxicity against human MCF7 cells assessed as cell growth inhibition at 10 uM after 48 hrs by SRB assay relative to control; conditions: MCF7, 48 h, read-out: GI
# [34] = Cytotoxicity against human OVCAR3 cells assessed as cell growth inhibition at 10 uM after 48 hrs by SRB assay relative to control; conditions: OVCAR-3, 48 h, read-out: GI
# [35] = system: NCI-H460; test: Cytotoxicity against human NCI-H460 cells assessed as cell growth inhibition at 10 uM after 48 hrs by SRB assay relative to control; conditions: NCI-H460, 48 h, read-out: GI
SMILES,inhibition of growth at 10 µM [1],inhibition of growth at 10 µM [2],inhibition of growth at 10 µM [3],inhibition of growth at 10 µM [4],inhibition of growth at 10 µM [5],inhibition of growth at 10 µM [6],inhibition of growth at 10 µM [7],inhibition of growth at 10 µM [8],inhibition of growth at 10 µM [9],inhibition of growth at 10 µM [10],inhibition of growth at 10 µM [11],inhibition of growth at 10 µM [12],inhibition of growth at 10 µM [13],inhibition of growth at 10 µM [14],inhibition of growth at 10 µM [15],inhibition of growth at 10 µM [16],inhibition of growth at 10 µM [17],inhibition of growth at 10 µM [18],inhibition of growth at 10 µM [19],inhibition of growth at 10 µM [20],further results
O=c1nc(N2CCOCC2)oc2c(-c3ccsc3)cccc12,1.24%,6.07%,14.4%,15.3%,11.9%,16%,0.83%,2.74%,-2.71%,3.35%,3.77%,37.2%,13.4%,-0.06%,8.4%,8.93%,9.6%,4.04%,10.8%,-2.53%,inhibition of growth at 10 µM [21]: 40.7%; inhibition of growth at 10 µM [22]: 15.4%; inhibition of growth at 10 µM [23]: 13.1%; inhibition of growth at 10 µM [24]: 21.9%; inhibition of growth at 10 µM [25]: 24.6%; inhibition of growth at 10 µM [26]: -5.35%; inhibition of growth at 10 µM [27]: 7.97%; inhibition of growth at 10 µM [28]: 9.75%; inhibition of growth at 10 µM [29]: 3.82%; inhibition of growth at 10 µM [30]: 16.3%; inhibition of growth at 10 µM [31]: 9.35%; inhibition of growth at 10 µM [32]: 12.7%; inhibition of growth at 10 µM [33]: 22.3%; inhibition of growth at 10 µM [34]: 11.8%; inhibition of growth at 10 µM [35]: -4.22%
O=c1nc(N2CCOCC2)oc2c(-c3cccc4c3oc3ccccc34)cccc12,-3.42%,13.1%,15%,13%,21.8%,22.3%,23%,12.7%,-4.36%,1.19%,3.88%,27.9%,13.7%,-14.9%,2.4%,11.6%,4.2%,5.92%,10.7%,-4.28%,inhibition of growth at 10 µM [21]: 45.6%; inhibition of growth at 10 µM [22]: 11.1%; inhibition of growth at 10 µM [23]: 9.26%; inhibition of growth at 10 µM [24]: 27.7%; inhibition of growth at 10 µM [25]: 23.2%; inhibition of growth at 10 µM [26]: -2.34%; inhibition of growth at 10 µM [27]: 0.3%; inhibition of growth at 10 µM [28]: 19.7%; inhibition of growth at 10 µM [29]: 12%; inhibition of growth at 10 µM [30]: 18.2%; inhibition of growth at 10 µM [31]: 14.6%; inhibition of growth at 10 µM [32]: 1.56%; inhibition of growth at 10 µM [33]: 11.3%; inhibition of growth at 10 µM [34]: 2.85%; inhibition of growth at 10 µM [35]: -2.97%
O=c1nc(N2CCOCC2)oc2ccc(-c3cccc4c3sc3ccccc34)cc12,4.51%,29.8%,-5.78%,4.6%,5.42%,-0.24%,-2.38%,0.12%,-17.8%,3.98%,0.97%,37.4%,9.84%,-10.4%,4.76%,4.4%,-8.92%,-10.4%,0.51%,1.3%,inhibition of growth at 10 µM [21]: 41.6%; inhibition of growth at 10 µM [22]: -2.37%; inhibition of growth at 10 µM [23]: -3.32%; inhibition of growth at 10 µM [24]: 11.7%; inhibition of growth at 10 µM [25]: 39.9%; inhibition of growth at 10 µM [26]: -2.96%; inhibition of growth at 10 µM [27]: -5.28%; inhibition of growth at 10 µM [28]: 4.63%; inhibition of growth at 10 µM [29]: 5.3%; inhibition of growth at 10 µM [30]: 5.25%; inhibition of growth at 10 µM [31]: 1.62%; inhibition of growth at 10 µM [32]: -13.4%; inhibition of growth at 10 µM [33]: 21%; inhibition of growth at 10 µM [34]: -11.1%; inhibition of growth at 10 µM [35]: -1.46%
